System: 156681-154-R-J1 tumor spheroid viability
Test: Anticancer human tumor 156681-154-R-J1 patient-derived melanoma cell line growth inhibition
Settings: spheroids with HUVEC and MSC; for IC50: curve of first compound; for viability, T/C: stronger effect = lower value; active means viability on the fitted dose curve at most 10% of control; inactive means the rest
Source text: Multicellular complex tumor spheroid response to DNA repair inhibitors in combination with DNA-damaging drugs
This study explores the anticancer activities of DNA-damaging drugs and inhibitors of DNA damage repair, both as single agents and in combinations. Complex tumor spheroids comprised of malignant cells, endothelial cells and mesenchymal stem cells served as an in vitro model for human solid tumors. This model system incorporates physiologically relevant features and patient-derived or established malignant cell lines with clinically relevant genetic alterations from many tumor types. Twenty-six patient-derived or established malignant cell lines were evaluated representing sarcoma, melanoma, small cell lung cancer (SCLC), non-small cell lung cancer (NSCLC), as well as bladder, ovarian and pancreatic cancers. The concentration ranges selected for each drug and investigational agent were based upon clinically achievable concentrations if the clinical Cmax of the agent was known.
Compounds. The drugs and compounds olaparib (NSC753686), talazoparib (NSC767125), berzosertib (NSC777718), elimusertib (NSC800525), nedisertib (NSC802822), VX-984 (NSC792969), AZD-1390 (NSC803789), temozolomide (NSC362856), topotecan (NSC609699), trabectedin (NSC813783), staurosporine (NSC755774), and gemcitabine (NSC613327) were obtained from the National Cancer Institute (NCI) Developmental Therapeutics Program Chemical Repository. The FDA-approved anticancer drug set is available from the Developmental Therapeutics Program at https://dtp.cancer.gov/organization/dscb/obtaining/available_plates.htm. […] The stock solutions were prepared in dimethyl sulfoxide (DMSO, Sigma-Aldrich, St. Louis, MO, cat. D2650) at 400-fold the tested concentration and stored at -70 degrees C. Prior to their use, the stock solutions were diluted in fresh medium and the final DMSO concentration in the assay was 0.25% (v/v). All drugs and investigational agents were tested over a range starting from a high concentration at or near the clinical Cmax and decreasing in half-log increments. If the clinical Cmax for an agent had not been determined, the highest concentration tested was 10 microM.
Cell Lines. The patient-derived cancer cell (PDC) lines: 156681-154-R-J1-PDC, 283228-195-R-J1-PDC, 287954-098-R-J1-PDC, 292921-168-R-J2-PDC, 349418-098-R-PDC, 425362-245-T-J1-PDC, 556581-035-R-J1-PDC, and BL0293-F563-PDC were received from the NCI Patient-Derived Models Repository (PDMR, https://pdmr.cancer.gov). The established cell lines HS-SY-2 (RRID:CVCL_8719), MPNST, and SYO-1 (RRID:CVCL_7146) were obtained from the Sloan Kettering Institute. The alveolar soft parts sarcoma cell line ASPS-1 (RRID:CVCL_S738) was established at the NCI and grown from internal seed stocks. The following established cell lines were purchased from the American Type Culture Collection (ATCC, Manassas, VA): G-401 (ATCC, cat. CRL-1441, RRID:CVCL_0270), SW982 (ATCC, cat. HTB-93, RRID:CVCL_1734), VA-ES-BJ (ATCC, cat. CRL-2138, RRID:CVCL_1785), NCI-H719 (ATCC, cat. CRL-5837, RRID:CVCL_1582), NCI-H196 (ATCC, cat. CRL-5823, RRID:CVCL_1509), NCI-H841 (ATCC, cat. CRL-5845, RRID:CVCL_1595), NCI-H1618 (ATCC, cat. CRL-5879, RRID:CVCL_1480), NCI-H1876 (ATCC, cat. CRL-5902, RRID:CVCL_1503), DMS 114 (ATCC, cat. CRL-2066; RRID:CVCL_1174), NCI-H211 (ATCC, cat. CRL-5824; RRID:CVCL_1529), and SW 1271 (ATCC, cat. CRL-2177, RRID:CVCL_1716). The small cell lung cancer cell line COR-L88 was purchased from Sigma-Aldrich (cat. 92031917-1VL, RRID:CVCL_1141). The non-small cell lung cancer cell lines NCI-H226 (RRID:CVCL_1544) and NCI-H322M (RRID:CVCL_1557) were established at the NCI and grown from internal seed stocks. Pooled donor human umbilical vein endothelial cells (HUVEC, Lonza, cat. CC-2519) and human mesenchymal stem cells (hMSC, Lonza, cat. PT-2501) were purchased from Lonza (Walkersville, MD).
Cell Culture. All cells were maintained in an incubator at 37 degrees C and 5% CO2 with 95% humidity. […]
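Further: spheroids exposed to compounds for 7 days before readout.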
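Wherever viability, T/C is given: percent of vehicle control viability where 100% = DMSO-treated spheroids.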

Cc1cc(C)c(CNC(=O)c2cc(-c3ccc(CN4CCOCC4)cc3)cc3c2cnn3C2CCCC2)c(=O)[nH]1 + CC[C@@]1(O)C(=O)OCc2c1cc1n(c2=O)Cc2cc3c(CN(C)C)c(O)ccc3nc2-1
inactive: viability, T/C (second compound 0.003 µM, first compound 0.0316 µM) 137% | viability, T/C (second compound 0.003 µM, first compound 0.1 µM) 111% | viability, T/C (second compound 0.003 µM, first compound 0.316 µM) 86.7% | viability, T/C (second compound 0.003 µM, first compound 1 µM) 87.8% | viability, T/C (second compound 0.003 µM, first compound 3.16 µM) 84.4% | viability, T/C (second compound 0.003 µM, first compound 10 µM) 82.9% | viability, T/C (second compound 0.00949 µM, first compound 0.0316 µM) 83% | viability, T/C (second compound 0.00949 µM, first compound 0.1 µM) 81.6% | viability, T/C (second compound 0.00949 µM, first compound 0.316 µM) 73.8% | viability, T/C (second compound 0.00949 µM, first compound 1 µM) 84.8% | viability, T/C (second compound 0.00949 µM, first compound 3.16 µM) 84.5% | viability, T/C (second compound 0.00949 µM, first compound 10 µM) 79.5% | viability, T/C (second compound 0.03 µM, first compound 0.0316 µM) 65.7% | viability, T/C (second compound 0.03 µM, first compound 0.1 µM) 66.6% | viability, T/C (second compound 0.03 µM, first compound 0.316 µM) 55.4% | viability, T/C (second compound 0.03 µM, first compound 1 µM) 57.7% | viability, T/C (second compound 0.03 µM, first compound 3.16 µM) 49.3% | viability, T/C (second compound 0.03 µM, first compound 10 µM) 51% | viability, T/C (second compound 0.0949 µM, first compound 0.0316 µM) 23.4% | viability, T/C (second compound 0.0949 µM, first compound 0.1 µM) 17.8% | viability, T/C (second compound 0.0949 µM, first compound 0.316 µM) 25.1% | viability, T/C (second compound 0.0949 µM, first compound 1 µM) 20.6% | viability, T/C (second compound 0.0949 µM, first compound 3.16 µM) 17.5% | viability, T/C (second compound 0.0949 µM, first compound 10 µM) 22.2% | viability, T/C (second compound 0.3 µM, first compound 0.0316 µM) 31.3% | viability, T/C (second compound 0.3 µM, first compound 0.1 µM) 29.5% | viability, T/C (second compound 0.3 µM, first compound 0.316 µM) 31.8% | viability, T/C (second compound 0.3 µM, first compound 1 µM) 30.9% | viability, T/C (second compound 0.3 µM, first compound 3.16 µM) 27.6% | viability, T/C (second compound 0.3 µM, first compound 10 µM) 30.6%
8.49 µM: IC50 (second compound 0.03 µM)
> 10 µM: IC50 (second compound 0.003 µM) | IC50 (second compound 0.00949 µM)
< 0.0316 µM: IC50 (second compound 0.0949 µM) | IC50 (second compound 0.3 µM)
